% of inhibition and % of control data for seven compounds are collected here from ChEMBL document CHEMBL5465560, “Selectivity Literature for EUbOPEN Chemogenomic Library” (2024).

The target in test [1] is T1, Dual specificity tyrosine-phosphorylation-regulated kinase 2 (Homo sapiens) (UniProt Q92630).
T1 sequence (whole entry): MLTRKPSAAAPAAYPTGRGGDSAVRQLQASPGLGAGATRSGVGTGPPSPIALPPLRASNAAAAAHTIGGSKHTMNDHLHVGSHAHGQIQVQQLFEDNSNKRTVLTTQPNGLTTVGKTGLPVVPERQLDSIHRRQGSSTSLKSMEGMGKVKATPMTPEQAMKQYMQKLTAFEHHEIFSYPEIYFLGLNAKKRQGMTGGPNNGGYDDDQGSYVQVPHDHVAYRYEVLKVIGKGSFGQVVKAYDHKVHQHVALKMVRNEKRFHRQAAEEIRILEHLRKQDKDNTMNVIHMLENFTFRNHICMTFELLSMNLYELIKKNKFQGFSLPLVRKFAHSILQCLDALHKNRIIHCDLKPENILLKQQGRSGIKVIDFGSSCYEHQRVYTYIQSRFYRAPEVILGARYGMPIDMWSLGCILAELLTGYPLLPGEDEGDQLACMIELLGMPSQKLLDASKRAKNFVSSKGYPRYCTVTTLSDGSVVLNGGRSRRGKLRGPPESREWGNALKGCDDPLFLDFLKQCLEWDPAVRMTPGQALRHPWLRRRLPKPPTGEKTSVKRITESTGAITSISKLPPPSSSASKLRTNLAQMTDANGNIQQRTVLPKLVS
In words: Selectivity interaction (Upstate Kinase Profiler service (Millipore)) EUB0000056c DYRK2. To be noted: at 1 µM.

Test [2] deals with T2, Mitogen-activated protein kinase kinase kinase 2 (Homo sapiens) (UniProt Q9Y2U5).
T2 sequence (whole entry): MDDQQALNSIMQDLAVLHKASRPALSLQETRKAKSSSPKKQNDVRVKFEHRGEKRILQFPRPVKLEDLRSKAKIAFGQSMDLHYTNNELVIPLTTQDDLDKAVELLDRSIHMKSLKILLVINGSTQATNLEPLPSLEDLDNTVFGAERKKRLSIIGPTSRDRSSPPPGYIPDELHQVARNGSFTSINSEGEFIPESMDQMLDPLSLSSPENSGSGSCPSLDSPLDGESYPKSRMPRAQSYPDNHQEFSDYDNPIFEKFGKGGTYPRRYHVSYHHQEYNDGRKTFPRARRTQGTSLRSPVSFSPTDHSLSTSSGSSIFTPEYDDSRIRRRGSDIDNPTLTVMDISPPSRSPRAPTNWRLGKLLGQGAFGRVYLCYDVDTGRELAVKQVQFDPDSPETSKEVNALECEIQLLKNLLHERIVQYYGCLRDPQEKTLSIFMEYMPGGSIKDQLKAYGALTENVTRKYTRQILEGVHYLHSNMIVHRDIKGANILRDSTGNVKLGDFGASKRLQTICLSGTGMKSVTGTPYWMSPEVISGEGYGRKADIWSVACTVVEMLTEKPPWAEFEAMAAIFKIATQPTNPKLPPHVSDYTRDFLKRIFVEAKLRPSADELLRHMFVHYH
In words: Selectivity interaction (Ambit KINOMEscan and KiNATiv profiling in Jurkat cells) EUB0000090b MAP3K2. In kind it is cell-based. The note with it: at 1 µM.

The target in test [3] is Leukocyte tyrosine kinase receptor (Homo sapiens, UniProt P29376). As to the kind of experiment: Selectivity interaction (KinomeScan (DiscoverX)) EUB0001049a LTK. The note with it: at 1 µM.
Sequence of Leukocyte tyrosine kinase receptor (P29376 whole entry): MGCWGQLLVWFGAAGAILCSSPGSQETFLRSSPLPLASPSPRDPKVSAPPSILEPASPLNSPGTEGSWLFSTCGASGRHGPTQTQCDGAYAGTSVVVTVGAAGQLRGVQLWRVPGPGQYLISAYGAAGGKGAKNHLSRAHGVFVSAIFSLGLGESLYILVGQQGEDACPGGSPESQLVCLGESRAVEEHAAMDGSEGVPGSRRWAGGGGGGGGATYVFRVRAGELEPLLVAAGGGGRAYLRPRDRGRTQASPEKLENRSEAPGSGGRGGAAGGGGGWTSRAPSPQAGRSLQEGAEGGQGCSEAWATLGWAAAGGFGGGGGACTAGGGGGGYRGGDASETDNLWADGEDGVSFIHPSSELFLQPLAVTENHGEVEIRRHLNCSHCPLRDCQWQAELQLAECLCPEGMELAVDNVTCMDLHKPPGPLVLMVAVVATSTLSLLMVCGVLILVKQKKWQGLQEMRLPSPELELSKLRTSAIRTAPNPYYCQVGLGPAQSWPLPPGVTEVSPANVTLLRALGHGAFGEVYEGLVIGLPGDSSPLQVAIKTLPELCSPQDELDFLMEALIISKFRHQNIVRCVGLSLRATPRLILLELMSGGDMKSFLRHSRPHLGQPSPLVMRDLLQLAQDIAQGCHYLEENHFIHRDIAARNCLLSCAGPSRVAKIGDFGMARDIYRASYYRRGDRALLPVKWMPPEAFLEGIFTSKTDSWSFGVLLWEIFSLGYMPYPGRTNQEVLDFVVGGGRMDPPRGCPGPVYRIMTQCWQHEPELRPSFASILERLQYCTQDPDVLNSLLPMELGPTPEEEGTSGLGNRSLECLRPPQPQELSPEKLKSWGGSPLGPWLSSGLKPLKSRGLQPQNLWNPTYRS
The target in test [4] is CDK4/Cyclin D3 (Homo sapiens) (UniProt P11802+P30281). In words: (§1) Selectivity interaction (KinomeScan (DiscoverX)) EUB0000655a CDK4. To be noted: at 10 µM. In kind it is protein-complex assay.
Test [5] addresses Cyclin-dependent kinase 4/cyclin D1 (Homo sapiens) (UniProt P11802+P24385). The description is as §1. The class given is protein-complex assay. The note with it: at 10 µM.
The target of test [6] is T3, Serine/threonine-protein kinase TAO2 (Homo sapiens) (UniProt Q9UL54).
T3 sequence (whole entry): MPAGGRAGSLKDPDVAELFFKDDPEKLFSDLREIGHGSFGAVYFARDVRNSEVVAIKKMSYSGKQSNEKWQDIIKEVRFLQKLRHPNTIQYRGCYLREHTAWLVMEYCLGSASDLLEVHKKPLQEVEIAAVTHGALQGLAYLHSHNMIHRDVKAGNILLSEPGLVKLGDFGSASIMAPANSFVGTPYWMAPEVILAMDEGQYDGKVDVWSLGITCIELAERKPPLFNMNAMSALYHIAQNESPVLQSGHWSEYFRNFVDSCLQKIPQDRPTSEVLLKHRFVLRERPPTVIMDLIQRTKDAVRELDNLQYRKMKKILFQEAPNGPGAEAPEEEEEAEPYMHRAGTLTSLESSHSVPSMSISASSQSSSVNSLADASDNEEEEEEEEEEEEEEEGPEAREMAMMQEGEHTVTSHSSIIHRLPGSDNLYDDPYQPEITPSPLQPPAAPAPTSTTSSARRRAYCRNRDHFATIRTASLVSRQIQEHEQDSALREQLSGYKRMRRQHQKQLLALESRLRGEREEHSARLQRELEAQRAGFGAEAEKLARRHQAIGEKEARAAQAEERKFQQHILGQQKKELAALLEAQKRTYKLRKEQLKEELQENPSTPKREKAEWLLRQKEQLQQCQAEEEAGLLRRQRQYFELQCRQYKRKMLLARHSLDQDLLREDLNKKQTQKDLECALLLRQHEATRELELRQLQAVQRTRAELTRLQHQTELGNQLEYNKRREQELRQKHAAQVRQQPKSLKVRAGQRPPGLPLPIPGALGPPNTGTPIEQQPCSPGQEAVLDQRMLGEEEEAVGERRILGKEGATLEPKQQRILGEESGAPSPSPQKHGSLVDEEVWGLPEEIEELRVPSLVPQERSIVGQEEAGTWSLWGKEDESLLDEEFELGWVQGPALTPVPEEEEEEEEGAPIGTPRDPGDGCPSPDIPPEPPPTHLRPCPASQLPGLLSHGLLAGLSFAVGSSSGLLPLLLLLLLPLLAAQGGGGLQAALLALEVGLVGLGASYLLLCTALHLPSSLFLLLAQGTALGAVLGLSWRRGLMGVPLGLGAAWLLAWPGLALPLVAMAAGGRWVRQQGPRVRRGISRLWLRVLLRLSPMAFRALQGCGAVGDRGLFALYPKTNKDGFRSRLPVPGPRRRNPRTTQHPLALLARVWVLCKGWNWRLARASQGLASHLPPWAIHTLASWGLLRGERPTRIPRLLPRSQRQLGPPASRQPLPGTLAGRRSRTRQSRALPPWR
In words: Selectivity interaction (KinomeScan (DiscoverX)) EUB0000045b TAOK2.

Test [7] addresses Serine/threonine-protein kinase mTOR (Homo sapiens, UniProt P42345). In words: Selectivity interaction (KinomeScan (DiscoverX)) EUB0000595a MTOR. The note with it: at 10 µM.
Test [8] has as its target Serine/threonine-protein kinase 38 (Homo sapiens) (UniProt Q15208). In words: Selectivity interaction (ActivX KiNativ screen (ex vivo kinase selectivity in human PBMCs)) EUB0001619a STK38. In kind it is cell-based. The note with it: PBMC, at 1 µM.

Molecules are shown by their SMILES.

Sequence of Serine/threonine-protein kinase 38 (Homo sapiens) (Q15208 2-465 limits assumed): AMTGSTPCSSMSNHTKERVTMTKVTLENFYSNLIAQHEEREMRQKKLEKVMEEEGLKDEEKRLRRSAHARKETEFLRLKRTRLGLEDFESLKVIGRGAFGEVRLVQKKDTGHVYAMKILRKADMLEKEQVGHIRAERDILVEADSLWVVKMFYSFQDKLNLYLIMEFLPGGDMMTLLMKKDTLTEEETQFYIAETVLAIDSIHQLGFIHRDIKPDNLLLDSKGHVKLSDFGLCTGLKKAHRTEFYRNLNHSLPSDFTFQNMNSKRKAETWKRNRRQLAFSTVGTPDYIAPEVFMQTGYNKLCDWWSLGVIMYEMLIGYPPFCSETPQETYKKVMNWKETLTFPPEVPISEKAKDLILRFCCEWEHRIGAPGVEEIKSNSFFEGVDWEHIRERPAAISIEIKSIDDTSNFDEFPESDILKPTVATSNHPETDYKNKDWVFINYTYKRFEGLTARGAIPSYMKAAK

The compound `Cc1ccc(-c2ccc3c(ccc4sc5c(c43)NC[C@@H](C)NC5=O)n2)cn1` returned a % of inhibition in test [1] of 27%.

`CN(C)C/C=C/C(=O)Nc1ccc(C(=O)N2CCCC(Nc3ncc(Cl)c(-c4c[nH]c5ccccc45)n3)C2)cc1` (centres undefined) had a % of control in test [2] of 99%.

On to `COc1cc(Nc2nc(C)cc(-c3cnn4nc(OC)ccc34)n2)cc(C(F)(F)F)c1`, for which the % of control in test [3] worked out at 91%.

`CN(C)CCOc1ccc(-c2nc(-c3ccncc3)c(-c3ccc4c(c3)CC/C4=N\O)[nH]2)cc1`: the results for the % of control in test [4] and in test [5] were 86% and 58%, respectively.

Turning to `C=CC(=O)Nc1cc(-n2c(=O)ccc3cnc4ccc(-c5ccc(NS(C)(=O)=O)cc5)cc4c32)ccc1C`, the % of control in test [6] (at 1 µM) is 80%; in test [6] (at 10 µM), 100%.

Consider `COCC(=O)NC/C=C/c1ccc2ncnc(Nc3ccc(Oc4ccc(C)nc4)c(C)c3)c2c1` [CP-724714], for which the % of control in test [7] was 79%.

Take `N#Cc1cccc(-c2c[nH]c3ncnc(N4CCOCC4)c23)c1`: the % of inhibition in test [8] is 2%.
